Patent US20090047221A1 (NIPRI LIMITED, priority 2004, published 2009)

Test system: cancer cell line MDA-MB-468
Assay: Combination index with known cancer drugs against proliferation (Calcusyn software)
Format: cell-based
From the text: A combination index of less than 0.1 indicates very strong synergy; a combination index of 0.1 to 0.3 indicates strong synergism; a combination index of 0.3 to 0.7 indicates synergism; a combination index of 0.7 to 0.85 indicates moderate synergism; a combination index of 0.85 to 0.9 indicates slight synergism and a combination index of 0.9 to 1.1 indicates only very slight synergism, said combination being close to merely additive.
The combination index may be calculated using calcusyn software.
Evidence of synergy was determined by calculation of the combination index using Calcusyn software.
The MTT assay was used initially to determine the anti-proliferative activity of the test compounds. In the MTT assay a yellow thiazolyl blue tetrazolium bromide salt (MTT) is reduced, in metabolically active cells, to form insoluble purple formazan crystals which are solubilised by the addition of dimethyl sulphoxide (DMSO). Absorbance readings can then be determined spectrophotometrically and a relationship established between control untreated cells and drug treated cells enabling the quantification of anti-proliferative changes as a result of drug treatment (Mosmann, 1983).
Wells containing medium only were used as blanks. Following the attachment period, cells were treated with appropriate drug concentrations (20 μl added per well). 40 mg/ml stock drug solutions, in DMSO, were stored at −20° C. and on the day of drug treatment working solutions of 4 mg/ml were prepared in medium which was further diluted to achieve final drug dilution volumes of 20 μl. Initial screening was determined over a concentration range of 1-200 μg/ml. For potent compounds the assay was repeated over a narrower concentration range to determine accurate IC50 values. Cells were exposed to drug for 96 h continual exposure (37° C., 5% CO2). Following the 96 h incubation, 50 μl MTT solution (1 g MTT/500 ml PBS) was added per well and the plates were further incubated for 4 h (37° C., 5% CO2). After incubation the MTT and medium was removed from the wells and 100 μl DMSO added per well. Plates were agitated on an orbital mixer platform (Stuart Scientific) for 10 minutes. Absorbance was measured at 570 nm on a Biotrak II (Amersham Bioscience) plate reader. IC50 values were calculated comparing control and drug treated cells.

CC(C)CC(NC(=O)c1ccc2c(c1O)C(=O)OC(C)C2)C(=O)OC(C)(C)C (mixture of isomers) [ALM-55, Leucine Tert-Butyl Ester Amide]
Combination Index (Cisplatin 1 × 10^−2 mol/L, ALM compound 0.1 μg/ml): 0.003
Combination Index (Cisplatin 1 × 10^−2 mol/L, ALM compound 0.5 μg/ml): 0.009
Combination Index (Cisplatin 1 × 10^−2 mol/L, ALM compound 1.0 μg/ml): 0.023
Combination Index (Cisplatin 1 × 10^−2 mol/L, ALM compound 5.0 μg/ml): 0.11
Combination Index (Cisplatin 1 × 10^−3 mol/L, ALM compound 0.1 μg/ml): 0.031
Combination Index (Cisplatin 1 × 10^−3 mol/L, ALM compound 0.5 μg/ml): No
Combination Index (Cisplatin 1 × 10^−3 mol/L, ALM compound 1.0 μg/ml): No
Combination Index (Cisplatin 1 × 10^−3 mol/L, ALM compound 5.0 μg/ml): No
Combination Index (Cisplatin 1 × 10^−4 mol/L, ALM compound 0.1 μg/ml): No
Combination Index (Cisplatin 1 × 10^−4 mol/L, ALM compound 0.5 μg/ml): No
Combination Index (Cisplatin 1 × 10^−4 mol/L, ALM compound 1.0 μg/ml): No
Combination Index (Cisplatin 1 × 10^−4 mol/L, ALM compound 5.0 μg/ml): No
Combination Index (Cisplatin 1 × 10^−5 mol/L, ALM compound 0.1 μg/ml): No
Combination Index (Cisplatin 1 × 10^−5 mol/L, ALM compound 0.5 μg/ml): No
Combination Index (Cisplatin 1 × 10^−5 mol/L, ALM compound 1.0 μg/ml): No
Combination Index (Cisplatin 1 × 10^−5 mol/L, ALM compound 5.0 μg/ml): No
Combination Index (Cisplatin 1 × 10^−6 mol/L, ALM compound 0.1 μg/ml): No
Combination Index (Cisplatin 1 × 10^−6 mol/L, ALM compound 0.5 μg/ml): No
Combination Index (Cisplatin 1 × 10^−6 mol/L, ALM compound 1.0 μg/ml): No
Combination Index (Cisplatin 1 × 10^−6 mol/L, ALM compound 5.0 μg/ml): No
Combination Index (Cisplatin 1 × 10^−7 mol/L, ALM compound 0.1 μg/ml): 0.431
Combination Index (Cisplatin 1 × 10^−7 mol/L, ALM compound 0.5 μg/ml): No
Combination Index (Cisplatin 1 × 10^−7 mol/L, ALM compound 1.0 μg/ml): No
Combination Index (Cisplatin 1 × 10^−7 mol/L, ALM compound 5.0 μg/ml): No
Combination Index (Cisplatin 1 × 10^−8 mol/L, ALM compound 0.1 μg/ml): 0.155
Combination Index (Cisplatin 1 × 10^−8 mol/L, ALM compound 0.5 μg/ml): No
Combination Index (Cisplatin 1 × 10^−8 mol/L, ALM compound 1.0 μg/ml): No
Combination Index (Cisplatin 1 × 10^−8 mol/L, ALM compound 5.0 μg/ml): No
Combination Index (Cisplatin 1 × 10^−9 mol/L, ALM compound 0.1 μg/ml): 0.093
Combination Index (Cisplatin 1 × 10^−9 mol/L, ALM compound 0.5 μg/ml): 0.531
Combination Index (Cisplatin 1 × 10^−9 mol/L, ALM compound 1.0 μg/ml): No
Combination Index (Cisplatin 1 × 10^−9 mol/L, ALM compound 5.0 μg/ml): No
Combination Index (Doxorubicin 1 × 10^−4 mol/L, ALM compound 0.1 μg/ml): No
Combination Index (Doxorubicin 1 × 10^−4 mol/L, ALM compound 0.5 μg/ml): No
Combination Index (Doxorubicin 1 × 10^−4 mol/L, ALM compound 1.0 μg/ml): No
Combination Index (Doxorubicin 1 × 10^−4 mol/L, ALM compound 5.0 μg/ml): No
Combination Index (Doxorubicin 1 × 10^−5 mol/L, ALM compound 0.1 μg/ml): 0.284
Combination Index (Doxorubicin 1 × 10^−5 mol/L, ALM compound 0.5 μg/ml): No
Combination Index (Doxorubicin 1 × 10^−5 mol/L, ALM compound 1.0 μg/ml): 0.344
Combination Index (Doxorubicin 1 × 10^−5 mol/L, ALM compound 5.0 μg/ml): 0.969
Combination Index (Etoposide 1 × 10^−4 mol/L, ALM compound 0.1 μg/ml): 0.312
Combination Index (Etoposide 1 × 10^−4 mol/L, ALM compound 0.5 μg/ml): 0.142
Combination Index (Etoposide 1 × 10^−4 mol/L, ALM compound 1.0 μg/ml): 0.473
Combination Index (Etoposide 1 × 10^−4 mol/L, ALM compound 5.0 μg/ml): 0.335
Combination Index (Etoposide 1 × 10^−5 mol/L, ALM compound 0.1 μg/ml): No
Combination Index (Etoposide 1 × 10^−5 mol/L, ALM compound 0.5 μg/ml): 1.136
Combination Index (Etoposide 1 × 10^−5 mol/L, ALM compound 1.0 μg/ml): No
Combination Index (Etoposide 1 × 10^−5 mol/L, ALM compound 5.0 μg/ml): No
Combination Index (Etoposide 1 × 10^−6 mol/L, ALM compound 0.1 μg/ml): No
Combination Index (Etoposide 1 × 10^−6 mol/L, ALM compound 0.5 μg/ml): No
Combination Index (Etoposide 1 × 10^−6 mol/L, ALM compound 1.0 μg/ml): No
Combination Index (Etoposide 1 × 10^−6 mol/L, ALM compound 5.0 μg/ml): No
Combination Index (Etoposide 1 × 10^−7 mol/L, ALM compound 0.1 μg/ml): No
Combination Index (Etoposide 1 × 10^−7 mol/L, ALM compound 0.5 μg/ml): No
Combination Index (Etoposide 1 × 10^−7 mol/L, ALM compound 1.0 μg/ml): No
Combination Index (Etoposide 1 × 10^−7 mol/L, ALM compound 5.0 μg/ml): No
Combination Index (Etoposide 1 × 10^−8 mol/L, ALM compound 0.1 μg/ml): 0.414
Combination Index (Etoposide 1 × 10^−8 mol/L, ALM compound 0.5 μg/ml): 0.910
Combination Index (Etoposide 1 × 10^−8 mol/L, ALM compound 1.0 μg/ml): No
Combination Index (Etoposide 1 × 10^−8 mol/L, ALM compound 5.0 μg/ml): No
Combination Index (Etoposide 1 × 10^−9 mol/L, ALM compound 0.1 μg/ml): 0.318
Combination Index (Etoposide 1 × 10^−9 mol/L, ALM compound 0.5 μg/ml): 0.829
Combination Index (Etoposide 1 × 10^−9 mol/L, ALM compound 1.0 μg/ml): No
Combination Index (Etoposide 1 × 10^−9 mol/L, ALM compound 5.0 μg/ml): No
Combination Index (Etoposide 1 × 10^−10 mol/L, ALM compound 0.1 μg/ml): 0.267
Combination Index (Etoposide 1 × 10^−10 mol/L, ALM compound 0.5 μg/ml): 0.494
Combination Index (Etoposide 1 × 10^−10 mol/L, ALM compound 1.0 μg/ml): No
Combination Index (Etoposide 1 × 10^−10 mol/L, ALM compound 5.0 μg/ml): No
Combination Index (Irinotecan 1 × 10^−3 mol/L, ALM compound 0.1 μg/ml): 1.133
Combination Index (Irinotecan 1 × 10^−3 mol/L, ALM compound 0.5 μg/ml): 0.604
Combination Index (Irinotecan 1 × 10^−3 mol/L, ALM compound 1.0 μg/ml): 0.531
Combination Index (Irinotecan 1 × 10^−3 mol/L, ALM compound 5.0 μg/ml): 0.611
Combination Index (Irinotecan 1 × 10^−4 mol/L, ALM compound 0.1 μg/ml): 0.205
Combination Index (Irinotecan 1 × 10^−4 mol/L, ALM compound 0.5 μg/ml): 0.136
Combination Index (Irinotecan 1 × 10^−4 mol/L, ALM compound 1.0 μg/ml): 0.053
Combination Index (Irinotecan 1 × 10^−4 mol/L, ALM compound 5.0 μg/ml): 0.128
Combination Index (Irinotecan 1 × 10^−5 mol/L, ALM compound 0.1 μg/ml): No
Combination Index (Irinotecan 1 × 10^−5 mol/L, ALM compound 0.5 μg/ml): 0.682
Combination Index (Irinotecan 1 × 10^−5 mol/L, ALM compound 1.0 μg/ml): No
Combination Index (Irinotecan 1 × 10^−5 mol/L, ALM compound 5.0 μg/ml): No
Combination Index (Irinotecan 1 × 10^−6 mol/L, ALM compound 0.1 μg/ml): No
Combination Index (Irinotecan 1 × 10^−6 mol/L, ALM compound 0.5 μg/ml): No
Combination Index (Irinotecan 1 × 10^−6 mol/L, ALM compound 1.0 μg/ml): No
Combination Index (Irinotecan 1 × 10^−6 mol/L, ALM compound 5.0 μg/ml): No
Combination Index (Irinotecan 1 × 10^−7 mol/L, ALM compound 0.1 μg/ml): No
Combination Index (Irinotecan 1 × 10^−7 mol/L, ALM compound 0.5 μg/ml): No
Combination Index (Irinotecan 1 × 10^−7 mol/L, ALM compound 1.0 μg/ml): No
Combination Index (Irinotecan 1 × 10^−7 mol/L, ALM compound 5.0 μg/ml): No
Combination Index (Irinotecan 1 × 10^−8 mol/L, ALM compound 0.1 μg/ml): No
Combination Index (Irinotecan 1 × 10^−8 mol/L, ALM compound 0.5 μg/ml): 0.500
Combination Index (Irinotecan 1 × 10^−8 mol/L, ALM compound 1.0 μg/ml): No
Combination Index (Irinotecan 1 × 10^−8 mol/L, ALM compound 5.0 μg/ml): No
Combination Index (Irinotecan 1 × 10^−9 mol/L, ALM compound 0.1 μg/ml): No
Combination Index (Irinotecan 1 × 10^−9 mol/L, ALM compound 0.5 μg/ml): No
Combination Index (Irinotecan 1 × 10^−9 mol/L, ALM compound 1.0 μg/ml): No
Combination Index (Irinotecan 1 × 10^−9 mol/L, ALM compound 5.0 μg/ml): No
Combination Index (Irinotecan 1 × 10^−10 mol/L, ALM compound 0.1 μg/ml): 0.061
Combination Index (Irinotecan 1 × 10^−10 mol/L, ALM compound 0.5 μg/ml): No
Combination Index (Irinotecan 1 × 10^−10 mol/L, ALM compound 1.0 μg/ml): No
Combination Index (Irinotecan 1 × 10^−10 mol/L, ALM compound 5.0 μg/ml): No
